Data on 13 compounds can be found in US10947188B2, “Small molecule ferroptosis inducers” (THE TRUSTEES OF COLUMBIA UNIVERSITY IN THE CITY OF NEW YORK, priority 2016, dated 2021).

The subject of assay [1] is HT-1080 cells. The experiment in a line: Cell viability assay (Alamar Blue), lethal compounds with or without modulators. The note with it: for effect on FIN56 lethality: modulator cotreatment or pretreatment. Format: cell-based. As for the experimental part: 1,000 cells per 36 μl were seeded in each well in 384-well plates. Lethal compounds were dissolved, and a twofold, 12-point dilution series was prepared in DMSO. Compound solutions were further diluted with media at 1:25, and 4 μl per well of the diluted solutions was added to cell cultures immediately after cells were seeded. […] When other cell-death-modulating compounds (100 nM sodium selenite, 1 μM cerivastatin, 100 μg/mL mevalonic acid) were used in cotreatments, they were supplemented to cell culture for 24 h before lethal compounds were added to cell culture, after which cells were further incubated for 24 h at 37° C. under 5% CO2. On the day of the viability measurement, we added 10 μl per well of 50% Alamar Blue diluted in media (Life Technologies) and further incubated the cells at 37° C. for 6 h. Fluorescence intensity (excitation/emission: 530/590) was measured with a Victor 3 plate reader (PerkinElmer), and the normalized viability was calculated as VL=(IL−I0)/(IV−I0), where VL, I0, IV, and IL are the normalized viability and the raw fluorescence intensities from the wells containing media, cells treated with a vehicle (negative control), and cells with the lethal compound (L), respectively. When the effect of a chemical modulator (M) on L was calculated, we instead used the equation VL|M=(IM,L−I0)/(IM,V−I0), where VL|M, IM,L and IM,V are the normalized viability, and fluorescence intensity from cells treated with […], respectively. The viability was typically measured in biological triplicate unless otherwise specified. A representative dose-response curve, the mean and standard error of normalized viability from one replicate were plotted. […]
(In general: Alamar Blue is a resazurin reagent that responds to reducing activity.)

Assay [2] has as its system HT-1080 cells. The experiment in a line: Analysis of lipid ROS generation (C11-BODIPY 581/591 flow cytometry). Format: cell-based. As for the experimental part: Cells were treated with test compounds, trypsinized, pelleted, and washed once with PBS. For lipophilic or aqueous ROS detection, cells were re-suspended in Hanks' Balanced Salt Solution (HBSS; […] Cells were then pelleted, re-suspended in 500 μL HBSS, strained through a 40-μm cell strainer (BD Falcon), and analyzed using a BD Accuri C6 flow cytometer (BD Biosciences). Both dyes were measured in the FL1 channel. Experiments were done in biological triplicates.
In general terms: Flow cytometry measures light scatter and fluorescence of single cells or particles in a stream.

The next assay concerns GPX4. The experiment in a line: Western blotting of GPX4 protein abundance. The note with it: for effect on FIN56-induced decrease of GPX4 protein abundance: 5 μM FIN56. Format: cell-based, human. Here is the method: Seeded 300,000 cells (HT-1080 or BJeLR) per well in six-well plates. For cotreatment, ferroptosis inducers (10 μM erastin for 11 h, 0.5 μM (1S, 3R)-RSL3 for 2 h, or 5 μM FIN56) and 100 μM α-tocopherol were added to cell culture at the same time, and cells were then incubated for 10 h (FIG. 2E). When other death-modulating compounds (100 nM sodium selenite, 1 μM cerivastatin, 100 μg/mL mevalonic acid, 30 μM C75, or 2 μM cerulenin) were used in cotreatments, cells were pre-incubated with the modulators for 24 h before being treated with ferroptosis inducers for 6 h. Cell lysis, SDS-PAGE and protein transfer to PVDF membrane were performed as previously described (Dixon et al. 2012). We used the following antibodies: anti-human α-tubulin (Santa Cruz Biotechnology, sc-32293, 1:10,000 dilution), anti-human GPX4 (Abcam, ab41787, 1:2,000 dilution), anti-human GPX1 (R&D Systems, AF3798, 1:1,000 dilution), and anti-human SQS (Abcam, ab109723 for full-length, ab195046 for truncated, both at 1:1,000 dilution). Secondary antibodies were from LI-COR (1:3,000 dilution). The PVDF membranes labeled with primary and secondary antibodies were scanned using an Odyssey Imaging System (LI-COR). Experiments were performed in biological triplicates, and the mean±s.e. of intensity was plotted.

In the case of `COC1=C(OC)C(=O)C(CCCCCCCCCCO)=C(C)C1=O` [idebenone], the “effect on staurosporine-induced cell death” value in the assay on HT-1080 cells [1] is on record as “enhanced it”. Besides, the “effect on FIN56 lethality” value in the assay on HT-1080 cells [1] (HT-1080 cells) is listed as “the only suppressor of FIN56-induced ferroptosis”. In addition, in the assay with HT-1080 cells [2], the “effect on lipid ROS generation after FIN56 treatment” value (from here on “effect on lipid ROS generation”) is on record as “inhibited lipid ROS generation after FIN56 treatment”. Besides, the “effect on FIN56-induced decrease of GPX4 protein abundance” value (shortened to “effect on FIN56-induced decrease”) with GPX4 is “did not block the decrease in GPX4 protein abundance”.

With `O=C(O)CN(CC(=O)O)c1ccccc1OCCOc1ccccc1N(CC(=O)O)CC(=O)O` [BAPTA], the “effect on FIN56 lethality” value in the assay with HT-1080 cells [1] (HT-1080 cells) is “suppressed it”.

With `Cc1c(C)c2c(c(C)c1O)CC[C@@](C)(CCC[C@H](C)CCC[C@H](C)CCCC(C)C)O2` [α-tocopherol], the “effect on staurosporine-induced cell death” value in the assay on HT-1080 cells [1] is “suppressed staurosporine-induced cell death”. In addition, the “effect on lipid ROS generation” value in the assay on HT-1080 cells [2] is listed as “inhibited lipid ROS generation after FIN56 treatment”. The “effect on FIN56-induced decrease” value in the assay with GPX4 is reported as “not inhibited”.

Turning to `CCCCCCCCCCCCCCOc1ccc(C(=O)O)o1` [TOFA], the “effect on FIN56 lethality” value in the assay on HT-1080 cells [1] (HT-1080 cells) is “potent suppressor of FIN56”. Also, the “effect on lipid ROS generation” value in the assay with HT-1080 cells [2] was “suppressed lipid ROS generation after FIN56 treatment”. Also, in the assay with GPX4, the “effect on FIN56-induced decrease” value is recorded as “inhibited the loss of GPX4”.

Regarding `O=[Se]([O-])[O-].[Na+].[Na+]` [selenite, sodium selenite], the “effect on FIN56 lethality” value in the assay on HT-1080 cells [1] (HT-1080 cells) is given as “suppressed FIN56 lethality”.

On to `CC(C)=CCC/C(C)=C/CC/C(C)=C/COP(=O)(O)OP(=O)(O)O.N.N.N` [FPP, farnesyl-PP], for which the “effect on FIN56 lethality” value in the assay on HT-1080 cells [1] (HT-1080 cells) was “suppressed the lethality of FIN56”.

As for `C[C@H]1O[C@@H](O[C@H]2[C@@H](O)C[C@H](O[C@H]3[C@@H](O)C[C@H](O[C@H]4CC[C@@]5(C)[C@H](CC[C@@H]6[C@@H]5C[C@@H](O)[C@]5(C)[C@@H](C7=CC(=O)OC7)CC[C@]65O)C4)O[C@@H]3C)O[C@@H]2C)C[C@H](O)[C@@H]1O` [digoxin, Digoxin], the “effect on FIN56 lethality” value with HT-1080 cells [1] (HT-1080 cells) is “enhanced FIN56 lethality”.

Regarding `O=S(=O)(NC1CCOCC1)c1ccc2c(c1)C(=NOCCOCCOCCO)c1cc(S(=O)(=O)NC3CCOCC3)ccc1-2` [SRS11-66, 9-(2-(2-(2-hydroxyethoxy)ethoxy)ethoxyimino)-N2,N7-bis(tetrahydro-2H-pyran-4-yl)-9H-fluorene-2,7-disulfonamide], the “ferroptosis-inducing activity of FIN56 analogs” value with HT-1080 cells [1] (HT-1080, 48 hrs) was “complete loss of activity”.

As to `CNc1ccc2oc(C[C@H]3O[C@@]4(CC[C@H]3C)O[C@H]([C@H](C)C(=O)c3ccc[nH]3)[C@H](C)C[C@H]4C)nc2c1C(=O)O` [A23187], the “effect on FIN56 lethality” value in the assay on HT-1080 cells [1] (HT-1080 cells) was “enhanced FIN56 lethality”.

For `COC(=O)c1ccc([C@H]2c3[nH]c4ccccc4c3C[C@H](C(=O)OC)N2C(=O)CCl)cc1` [(1S, 3R)-RSL3], the “suppression of lethality by mevalonate-pathway modulators (FPP, YM-53601, idebenone) and α-tocopherol” value with HT-1080 cells [1] (HT-1080 cells, modulatory profiling scheme) is “potently suppressed by all the compounds”. Besides, the “abundance of GPX4 protein” value in the assay on GPX4 (BJeLR, cotreatment with 100 μM α-tocopherol, 10 h, FIN56 5 μM) is “Neither erastin nor (1S, 3R)-RSL3 affected the abundance of GPX4 to the same extent as FIN56”.

For `O=C(O)CN(CCOCCOCCN(CC(=O)O)CC(=O)O)CC(=O)O` [EGTA, Ethyleneglycol-O,O′-bis(2-aminoethyl)-N,N,N′,N′-tetraacetic acid], in the assay with HT-1080 cells [1] (HT-1080 cells), the “effect on FIN56 lethality” value is “suppressed it”.

As for `CN1CCCN(C(=O)c2cccc(-c3ccc(/C=C4/C(=O)Nc5ccc(Cl)cc54)o3)c2)CC1` [CX-6258], the “effect of ferroptosis inhibitors (α-tocopherol, deferoxamine) on lethality” value in the assay on HT-1080 cells [1] (HT-1080 cells, cotreatment) is “the lethality was not suppressed by αToc”.

For the compound `C[C@H](CCC(=O)O)C[C@H](C)C[C@H](C)C(=O)/C=C(\O)[C@H](C)C[C@H](C)C/C=C/[C@@H](C)[C@@H](O)[C@@H](C)[C@@H](O)C[C@@H]1CC[C@@](C)([C@H]2CC[C@@](C)([C@@H](C)O)O2)O1` [ionomycin], the “effect on FIN56 lethality” value in the assay with HT-1080 cells [1] (HT-1080 cells) was “enhanced FIN56 lethality”.
